Our source for the T/C values is PubChem BioAssay AID290 (DTP/NCI, 2004).

Where “and” joins values, the source holds several entries; their conditions need not be identical. Equal entries are not always repeated. Results filed as inconclusive are left out.

This test deals with mice, P1798 lymphosarcoma sc, survival or tumor weight T/C. In words: NCI In Vivo Anticancer Drug Screen. Data for tumor model P1798 Lymphosarcoma (subcutaneous) in unknown mice. On the procedure:
The antitumor activity of compounds was measured in mice bearing transplantable tumors. Survival or tumor size were measured and the results are expressed as the measurement made in the treated group (T) divided by the measurement made in the vehicle treated control group (C). The tumor model used in this assay is P1798 Lymphosarcoma (subcutaneous) in unknown mice

Where [1] appears, read: endpoint: mean tumor weight, dose: 25.0 mg/kg/injection, schedule: Q01DX010 (ip), vehicle: saline, higher = larger tumour.
Setting [2] is: endpoint: mean tumor weight, dose: 50.0 mg/kg/injection, schedule: Q01DX010 (ip), vehicle: saline, higher = larger tumour.
Setting [3] is: endpoint: mean tumor weight, dose: 100.0 mg/kg/injection, schedule: Q01DX010 (ip), vehicle: saline, higher = larger tumour.
The mark [4] stands for this setting: endpoint: mean tumor weight, dose: 12.5 mg/kg/injection, schedule: Q01DX010 (ip), vehicle: saline, higher = larger tumour.
Setting [5] is: endpoint: mean tumor weight, dose: 250.0 mg/kg/injection, schedule: Q01DX010 (ip), vehicle: saline, higher = larger tumour.

In the case of `CN(Cc1cnc2nc(N)nc(N)c2n1)c1ccc(C(=O)N[C@@H](CCC(=O)O)C(=O)O)cc1`, the T/C reads like this: (endpoint: mean tumor weight, dose: 0.15 mg/kg/injection, schedule: Q01DX010 (ip), vehicle: other, higher = larger tumour) 79 % of control and 101 % of control; (endpoint: mean tumor weight, dose: 0.16 mg/kg/injection, schedule: Q01DX010 (ip), vehicle: other, higher = larger tumour) 118 % of control; (endpoint: mean tumor weight, dose: 0.39 mg/kg/injection, schedule: Q01DX010 (sc), vehicle: other, higher = larger tumour) 28 % of control; (endpoint: mean tumor weight, dose: 0.5 mg/kg/injection, schedule: Q01DX011 (ip), vehicle: carboxymethylcellulose (CMC), higher = larger tumour) 33 % of control; (endpoint: mean tumor weight, dose: 0.65 mg/kg/injection, schedule: Q01DX010 (sc), vehicle: other, higher = larger tumour) 50 % of control; (endpoint: mean tumor weight, dose: 1.0 mg/kg/injection, schedule: Q01DX011 (ip), vehicle: carboxymethylcellulose (CMC), higher = larger tumour) 1 % of control. The T/C is 18 % of control (endpoint: mean tumor weight, dose: 1.08 mg/kg/injection, schedule: Q01DX010 (sc), vehicle: other, higher = larger tumour); 78 % of control (endpoint: mean tumor weight, dose: 11.0 mg/kg/injection, schedule: Q01DX001 (ip), vehicle: carboxymethylcellulose (CMC), higher = larger tumour); 74 % of control (endpoint: mean tumor weight, dose: 22.0 mg/kg/injection, schedule: Q01DX001 (ip), vehicle: carboxymethylcellulose (CMC), higher = larger tumour); 44 % of control (endpoint: mean tumor weight, dose: 43.0 mg/kg/injection, schedule: Q01DX001 (ip), vehicle: carboxymethylcellulose (CMC), higher = larger tumour); 101 % of control (endpoint: median survival time, dose: 0.31 mg/kg/injection, schedule: Q01DX010 (ip), vehicle: sodium bicarbonate, higher = longer survival); 103 % of control (endpoint: median survival time, dose: 0.62 mg/kg/injection, schedule: Q01DX010 (ip), vehicle: sodium bicarbonate, higher = longer survival). The T/C (endpoint: median survival time, dose: 0.63 mg/kg/injection, schedule: Q01DX010 (ip), vehicle: sodium bicarbonate, higher = longer survival) was 103 % of control; the T/C (endpoint: median survival time, dose: 1.25 mg/kg/injection, schedule: Q01DX010 (ip), vehicle: sodium bicarbonate, higher = longer survival) was 113 % of control; the T/C (endpoint: median survival time, dose: 2.5 mg/kg/injection, schedule: Q01DX010 (ip), vehicle: sodium bicarbonate, higher = longer survival) is 33 % of control; the T/C (endpoint: median survival time, dose: 4.0 mg/kg/injection, schedule: Q04DX007 (ip), vehicle: sodium bicarbonate, higher = longer survival) is 76 % of control; the T/C (endpoint: median survival time, dose: 5.0 mg/kg/injection, schedule: Q01DX010 (ip), vehicle: sodium bicarbonate, higher = longer survival) was 37 % of control; the T/C (endpoint: median survival time, dose: 8.0 mg/kg/injection, schedule: Q04DX007 (ip), vehicle: sodium bicarbonate, higher = longer survival) was 76 % of control. Also, the T/C (endpoint: median survival time, dose: 16.0 mg/kg/injection, schedule: Q04DX007 (ip), vehicle: saline, higher = longer survival) was 161 % of control; the T/C (endpoint: median survival time, dose: 16.0 mg/kg/injection, schedule: Q04DX007 (ip), vehicle: sodium bicarbonate, higher = longer survival) was 74 % of control; the T/C (endpoint: median survival time, dose: 32.0 mg/kg/injection, schedule: Q04DX007 (ip), vehicle: saline, higher = longer survival) was 170 % of control; the T/C (endpoint: median survival time, dose: 32.0 mg/kg/injection, schedule: Q04DX007 (ip), vehicle: sodium bicarbonate, higher = longer survival) is 29 % of control; the T/C (endpoint: median survival time, dose: 64.0 mg/kg/injection, schedule: Q04DX007 (ip), vehicle: sodium bicarbonate, higher = longer survival) was 25 % of control.

Take `CC1(O)CCC2C3CCC4=CC(=O)CCC4C3CCC21C` (stereo not given): the T/C reads like this: (endpoint: mean tumor weight, dose: 75.0 mg/kg/injection, schedule: Q01DX010 (sc), vehicle: steriod suspending solution, higher = larger tumour) 116 % of control; (endpoint: mean tumor weight, dose: 150.0 mg/kg/injection, schedule: Q01DX010 (sc), vehicle: steriod suspending solution, higher = larger tumour) 115 % of control; (endpoint: mean tumor weight, dose: 300.0 mg/kg/injection, schedule: Q01DX010 (sc), vehicle: steriod suspending solution, higher = larger tumour) 109 % of control; (endpoint: mean tumor weight, dose: 600.0 mg/kg/injection, schedule: Q01DX010 (sc), vehicle: steriod suspending solution, higher = larger tumour) 122 % of control.

Regarding `CC(=O)O[C@]1(C(C)=O)CC[C@H]2[C@@H]3C[C@H](C)C4=CC(=O)C=C[C@]4(C)[C@@]3(F)[C@@H](O)C[C@@]21C`, the T/C reads like this: (endpoint: mean tumor weight, dose: 5.0 mg/kg/injection, schedule: Q01DX010 (sc), vehicle: steriod suspending solution, higher = larger tumour) 87 % of control; (endpoint: mean tumor weight, dose: 10.0 mg/kg/injection, schedule: Q01DX010 (sc), vehicle: steriod suspending solution, higher = larger tumour) 106 % of control; (endpoint: mean tumor weight, dose: 20.0 mg/kg/injection, schedule: Q01DX010 (sc), vehicle: steriod suspending solution, higher = larger tumour) 74 % of control; (endpoint: mean tumor weight, dose: 40.0 mg/kg/injection, schedule: Q01DX010 (sc), vehicle: steriod suspending solution, higher = larger tumour) 47 % of control.

For the compound `O=[n+]1c2c(n([O-])c3ccccc31)-c1cccc3cccc-2c13`, the T/C reads like this: under setting [1], 84 % of control; under setting [2], 37 % of control; under setting [3], 36 % of control; (endpoint: mean tumor weight, dose: 200.0 mg/kg/injection, schedule: Q01DX010 (ip), vehicle: saline, higher = larger tumour) 19 % of control.

Consider `C[C@]12C=CC(=O)C=C1CC[C@@H]1[C@@H]2[C@@H](O)C[C@@]2(C)[C@H]1CC[C@]2(O)C(=O)CO`, for which the T/C is, setting by setting: (endpoint: mean tumor weight, dose: 31.3 mg/kg/injection, schedule: Q01DX010 (sc), vehicle: steriod suspending solution, higher = larger tumour) 22 % of control; (endpoint: mean tumor weight, dose: 62.5 mg/kg/injection, schedule: Q01DX010 (sc), vehicle: steriod suspending solution, higher = larger tumour) 8 % of control.

As to `CN(N=O)C(N)=O`, the T/C was 10 % of control under setting [4] and 13 % of control under setting [1].

For `CN(C)/N=N/c1nc[nH]c1C(N)=O`, the T/C runs as follows: (endpoint: mean tumor weight, dose: 75.0 mg/kg/injection, schedule: Q01DX015 (ip), vehicle: carboxymethylcellulose (CMC), higher = larger tumour) 73 % of control; (endpoint: mean tumor weight, dose: 100.0 mg/kg/injection, schedule: Q01DX015 (ip), vehicle: carboxymethylcellulose (CMC), higher = larger tumour) 69 % of control; (endpoint: mean tumor weight, dose: 125.0 mg/kg/injection, schedule: Q01DX015 (ip), vehicle: carboxymethylcellulose (CMC), higher = larger tumour) 57 % of control; (endpoint: mean tumor weight, dose: 150.0 mg/kg/injection, schedule: Q01DX015 (ip), vehicle: carboxymethylcellulose (CMC), higher = larger tumour) 52 % of control.

As to `CCCCNc1ncnc2c1cnn2C`, the T/C (endpoint: mean tumor weight, dose: 6.25 mg/kg/injection, schedule: Q01DX010 (ip), vehicle: carboxymethylcellulose (CMC), higher = larger tumour) was 63 % of control; the T/C (endpoint: mean tumor weight, dose: 12.5 mg/kg/injection, schedule: Q01DX010 (ip), vehicle: carboxymethylcellulose (CMC), higher = larger tumour) was 97 % of control; the T/C (endpoint: mean tumor weight, dose: 25.0 mg/kg/injection, schedule: Q01DX010 (ip), vehicle: carboxymethylcellulose (CMC), higher = larger tumour) was 57 % of control.

For `[I][Hg][CH2]C1COC([CH2][Hg][I])CO1` (stereo not given), the T/C is, setting by setting: (endpoint: mean tumor weight, dose: 1.8 mg/kg/injection, schedule: Q01DX010 (ip), vehicle: carboxymethylcellulose (CMC), higher = larger tumour) 64 % of control; (endpoint: mean tumor weight, dose: 3.75 mg/kg/injection, schedule: Q01DX010 (ip), vehicle: carboxymethylcellulose (CMC), higher = larger tumour) 85 % of control; (endpoint: mean tumor weight, dose: 7.5 mg/kg/injection, schedule: Q01DX010 (ip), vehicle: carboxymethylcellulose (CMC), higher = larger tumour) 81 % of control; (endpoint: mean tumor weight, dose: 30.0 mg/kg/injection, schedule: Q01DX010 (ip), vehicle: carboxymethylcellulose (CMC), higher = larger tumour) 65 % of control.

`CN(C)CC(=O)c1ccc(O)c(O)c1`: under setting [5], the T/C is 154 % of control.

On to `C[C@H](N)C(=O)N[C@@H]1[C@H]2C(=C(O)C[C@@H](O)[C@@H]2O)C(=O)O[C@@H]1C`, for which the T/C is 61 % of control (endpoint: mean tumor weight, dose: 125.0 mg/kg/injection, schedule: Q01DX010 (ip), vehicle: saline, higher = larger tumour); 84 % of control under setting [5]; 64 % of control (endpoint: mean tumor weight, dose: 500.0 mg/kg/injection, schedule: Q01DX010 (ip), vehicle: saline, higher = larger tumour).

Turning to `N=C(N)SCc1c2ccccc2c(CSC(=N)N)c2ccccc12`, the T/C was 85 % of control (endpoint: mean tumor weight, dose: 2.5 mg/kg/injection, schedule: Q01DX011 (ip), vehicle: carboxymethylcellulose (CMC), higher = larger tumour); 99 % of control (endpoint: mean tumor weight, dose: 5.0 mg/kg/injection, schedule: Q01DX011 (ip), vehicle: carboxymethylcellulose (CMC), higher = larger tumour); 50 % of control (endpoint: mean tumor weight, dose: 10.0 mg/kg/injection, schedule: Q01DX011 (ip), vehicle: carboxymethylcellulose (CMC), higher = larger tumour); 40 % of control (endpoint: mean tumor weight, dose: 20.0 mg/kg/injection, schedule: Q01DX011 (ip), vehicle: carboxymethylcellulose (CMC), higher = larger tumour).

On to `OCC1OC(n2cnc3c(Cl)ncnc32)C(O)C1O` (stereo not given), for which the T/C (endpoint: mean tumor weight, dose: 62.5 mg/kg/injection, schedule: Q01DX010 (ip), vehicle: carboxymethylcellulose (CMC), higher = larger tumour) is 104 % of control; the T/C (endpoint: mean tumor weight, dose: 125.0 mg/kg/injection, schedule: Q01DX010 (ip), vehicle: carboxymethylcellulose (CMC), higher = larger tumour) was 107 % of control; the T/C (endpoint: mean tumor weight, dose: 250.0 mg/kg/injection, schedule: Q01DX010 (ip), vehicle: carboxymethylcellulose (CMC), higher = larger tumour) was 92 % of control; the T/C (endpoint: mean tumor weight, dose: 500.0 mg/kg/injection, schedule: Q01DX010 (ip), vehicle: carboxymethylcellulose (CMC), higher = larger tumour) is 91 % of control and 95 % of control; the T/C (endpoint: mean tumor weight, dose: 1000.0 mg/kg/injection, schedule: Q01DX010 (ip), vehicle: carboxymethylcellulose (CMC), higher = larger tumour) was 79 % of control.

As to `CC12C=CC(=O)C=C1CCC1C3CCC(O)(C(=O)CO)C3(C)CC(O)C12F` (stereo not given), the T/C is, setting by setting: (endpoint: mean tumor weight, dose: 3.0 mg/kg/injection, schedule: Q01DX010 (sc), vehicle: steriod suspending solution, higher = larger tumour) 85 % of control; (endpoint: mean tumor weight, dose: 6.0 mg/kg/injection, schedule: Q01DX010 (sc), vehicle: steriod suspending solution, higher = larger tumour) 58 % of control; (endpoint: mean tumor weight, dose: 12.0 mg/kg/injection, schedule: Q01DX010 (sc), vehicle: steriod suspending solution, higher = larger tumour) 56 % of control.

Turning to `COS(C)(=O)=O`, the T/C is 98 % of control under setting [4], 80 % of control under setting [1], 81 % of control under setting [2] and 57 % of control under setting [3].
